Measured values taken from patent publication US20250171438A1 (Agios Pharmaceuticals, Inc., priority 2022, published 2025).

Target: T1, human PAH with the R408W mutation (Homo sapiens, UniProt P00439, R408W)
T1 construct: expressed in transfected cells
T1 sequence (P00439 1-452 R408W): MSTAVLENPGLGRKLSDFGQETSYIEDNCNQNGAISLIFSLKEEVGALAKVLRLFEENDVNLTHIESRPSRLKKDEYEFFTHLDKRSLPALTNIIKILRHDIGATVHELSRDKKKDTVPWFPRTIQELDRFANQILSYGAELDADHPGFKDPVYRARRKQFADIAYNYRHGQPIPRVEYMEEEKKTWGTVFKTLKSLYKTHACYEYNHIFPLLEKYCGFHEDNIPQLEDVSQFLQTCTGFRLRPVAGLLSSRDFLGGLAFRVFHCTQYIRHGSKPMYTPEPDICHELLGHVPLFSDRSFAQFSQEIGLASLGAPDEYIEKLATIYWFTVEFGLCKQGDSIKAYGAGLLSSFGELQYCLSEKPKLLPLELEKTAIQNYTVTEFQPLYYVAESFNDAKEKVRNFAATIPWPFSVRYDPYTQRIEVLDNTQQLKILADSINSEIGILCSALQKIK
Assay: Cell Based Phenylalanine Flux Assay
Conditions: A375 cells expressing human R408W PAH; 24 hrs compound incubation; 13C-Tyrosine by LC-MS; average where tested multiple times; read-out: AC50

Compound	AC50
CN1CCN(c2nc(Br)c(C(=O)N3CCc4[nH]cnc4[C@@H]3c3nc4c(F)cccc4s3)o2)CC1 [Example 2032, (R)-(4-bromo-2-(4-methylpiperazin-1-yl)oxazol-5-yl)(4-(4-fluorobenzo[d]thiazol-2-yl)-6,7-dihydro-1H-imidazo[4,5-c]pyridin-5(4H)-yl)methanone]	1000 to 5000 nM
CCn1ncnc1C(=O)N1CCc2[nH]cnc2[C@@H]1c1nc2ccccc2s1 [Example 1957, (R)-(4-(benzo[d]thiazol-2-yl)-6,7-dihydro-1H-imidazo[4,5-c]pyridin-5(4H)-yl)(1-ethyl-1H-1,2,4-triazol-5-yl)methanone]	< 500 nM
O=C(c1cnn2ccccc12)N1CCc2[nH]cnc2[C@@H]1c1nc2c(Br)cccc2s1 [Example 1242, (R)-(4-(4-bromobenzo[d]thiazol-2-yl)-6,7-dihydro-1H-imidazo[4,5-c]pyridine-5(4H)-yl)(pyrazolo [1,5-a]pyridin-3-yl) methanone]	> 5000 nM
Cn1nncc1C(=O)N1CCc2[nH]cnc2[C@H]1c1nc2c(F)cccc2s1 [Example 1725]	500 to 1000 nM
CN(C)CCn1cc(C(=O)N2CCc3[nH]cnc3[C@H]2c2nc3c(F)cccc3s2)c(C(F)(F)F)n1 [Example 1641]	< 500 nM
C[C@@H](O)c1nc(C(F)F)c(C(=O)N2CCc3[nH]cnc3[C@H]2c2nc3c(C(F)(F)F)cccc3s2)o1 [Example 2109, (4-(difluoromethyl)-2-((R)-1-hydroxyethyl)oxazol-5-yl) ((S)-4-(4-(trifluoromethyl)benzo[d]thiazol-2-yl)-6,7-dihydro-1H-imidazo[4,5-c]pyridin-5(4H)-yl)methanone]	< 500 nM
Nc1cnc(N2CCc3[nH]cnc3[C@H]2c2nc3ccccc3s2)nc1 (single isomer, unassigned) [Example 1468]	500 to 1000 nM
Cc1ccn2ncc(C(=O)N3CCc4[nH]cnc4[C@H]3c3nc4ccccc4s3)c2c1 [Example 1125]	1000 to 5000 nM
O=C(c1cn(-c2ccccn2)nc1Cl)N1CCc2[nH]cnc2[C@@H]1c1nc2ccccc2s1 [Example 1908, (R)-(4-(benzo[d]thiazol-2-yl)-6,7-dihydro-1H-imidazo[4,5-c]pyridin-5(4H)-yl)(3-chloro-1-(pyridin-2-yl)-1H-pyrazol-4-yl)methanone]	1000 to 5000 nM
N#Cc1ncoc1C(=O)N1CC2(CC2)c2[nH]cnc2[C@H]1c1nc2ccccc2s1 [Example 1664, (S)-5-(4′-(benzo[d]thiazol-2-yl)-1′,4′,5′,6′-tetrahydrospiro[cyclopropane-1,7′-imidazo[4,5-c]pyridin]-5′-ylcarbonyl)oxazole-4-carbonitrile]	1000 to 5000 nM
O=C(CC1(O)CCC1)N1CCc2[nH]cnc2[C@@H]1c1nc2ccccc2s1 [Example 1658, (R)-1-(4-(benzo[d]thiazol-2-yl)-6,7-dihydro-1H-imidazo[4,5-c]pyridin-5(4H)-yl)-2-(1-hydroxycyclobutyl)ethanone]	500 to 1000 nM
Clc1cnc(CN2CCc3[nH]cnc3[C@@H]2c2nc3ccccc3[nH]2)s1 [Example 979, (R)-2-((4-(1H-benzo[d]imidazol-2-yl)-6,7-dihydro-1H-imidazo[4,5-c]pyridin-5(4H)-yl)methyl)-5-chlorothiazole]	> 5000 nM
O=C(c1oc(-c2ccccn2)nc1C1CC1)N1CCc2[nH]cnc2[C@H]1c1nc2c(F)cccc2s1 [Example 1535]	< 500 nM
O=C(c1nnc(-c2c(F)cccc2F)o1)N1CCc2[nH]cnc2[C@H]1c1nc2ccccc2s1 [Example 1367]	< 500 nM
Cc1ncoc1C(=O)N1C[C@H](C)c2[nH]cnc2[C@@H]1c1nc2ccccc2s1 [Example 1545, ((4R,7S)-4-(benzo[d]thiazol-2-yl)-7-methyl-1,4,6,7-tetrahydro-5H-imidazo[4,5-c]pyridin-5-yl)(4-methyloxazol-5-yl)methanone]	> 5000 nM
Nc1nc(C(F)(F)F)c(C(=O)N2CCc3[nH]cnc3[C@H]2c2nc3ccccc3s2)o1 [Example 1533]	< 500 nM
O=C(c1nnc(-c2cnn(S(=O)(=O)C3CC3)c2)o1)N1CCc2[nH]cnc2[C@H]1c1nc2ccccc2s1 [Example 1939]	500 to 1000 nM
O=C(c1nc(Cl)cs1)N1CCc2[nH]cnc2[C@H]1c1nc2cc(F)ccc2s1 [Example 1297]	500 to 1000 nM
O=C(c1ncc(-c2ccccc2)s1)N1CCc2[nH]cnc2[C@H]1c1nc2ccccc2s1 [Example 1189]	1000 to 5000 nM
O=C(c1cnn(CC(F)(F)F)c1C(F)F)N1CCc2[nH]cnc2[C@H]1c1nc2ccccc2s1 [Example 1973]	< 500 nM
O=C(c1scnc1C1CC1)N1CCc2[nH]cnc2[C@H]1c1nc2ccccc2s1 [Example 1387]	< 500 nM
O=C(c1nncs1)N1CCc2[nH]cnc2[C@H]1c1nc2c(F)cccc2s1 [Example 1270, (S)-(4-(4-fluorobenzo[d]thiazol-2-yl)-6,7-dihydro-1H-imidazo[4,5-c]pyridin-5(4H)-yl)(1,3,4-thiadiazol-2-yl)methanone]	500 to 1000 nM
COCc1ncc(C(=O)N2CCc3[nH]cnc3[C@@H]2c2nc3c(F)cccc3s2)s1 [Example 1704, (R)-(4-(4-fluorobenzo[d]thiazol-2-yl)-6,7-dihydro-1H-imidazo[4,5-c]pyridin-5(4H)-yl)(2-(methoxymethyl)thiazol-5-yl)methanone]	1000 to 5000 nM
O=C(c1cnc(Cc2ccccc2)s1)N1CCc2[nH]cnc2[C@@H]1c1nc2ccccc2s1 [Example 1228, (R)-(4-(benzo[d]thiazol-2-yl)-6,7-dihydro-1H-imidazo[4,5-c]pyridin-5(4H)-yl)(2-benzylthiazol-5-yl)methanone]	1000 to 5000 nM
O=C(c1oc(C2(O)CC2)nc1C(F)(F)F)N1CCc2[nH]cnc2[C@@H]1c1nc2c(F)cccc2s1 [Example 2186, (R)-(4-(4-fluorobenzo[d]thiazol-2-yl)-1,4,6,7-tetrahydro-5H-imidazo[4,5-c]pyridin-5-yl)(2-(1-hydroxycyclopropyl)-4-(trifluoromethyl)oxazol-5-yl)methanone]	1000 to 5000 nM
C[C@H](O)c1nc(C(F)F)c(C(=O)N2CCc3[nH]cnc3[C@@H]2c2nc3ccccc3s2)o1 [Example 2096, ((R)-4-(benzo[d]thiazol-2-yl)-6,7-dihydro-1H-imidazo[4,5-c]pyridin-5(4H)-yl)(4-(difluoromethyl)-2-((S)-1-hydroxyethyl)oxazol-5-yl)methanone]	1000 to 5000 nM
Cn1cc(-c2ncc(C(=O)N3CCc4[nH]cnc4[C@@H]3c3nc4ccccc4s3)s2)c(C2CC2)n1 [Example 1386, (R)-(4-(benzo[d]thiazol-2-yl)-6,7-dihydro-1H-imidazo[4,5-c]pyridin-5(4H)-yl)(2-(3-cyclopropyl-1-methyl-1H-pyrazol-4-yl)thiazol-5-yl)methanone]	1000 to 5000 nM
CC(C)(O)c1nc(C2CC2)c(C(=O)N2CCc3[nH]cnc3[C@H]2c2nc3ccccc3s2)o1 [Example 1543]	< 500 nM
CC(C)(O)c1ncc(C(=O)N2CCc3[nH]cnc3[C@H]2c2nc3c(F)cccc3s2)s1 [Example 1477, (S)-(4-(4-fluorobenzo[d]thiazol-2-yl)-6,7-dihydro-1H-imidazo[4,5-c]pyridin-5(4H)-yl)(2-(2-hydroxypropan-2-yl)thiazol-5-yl)methanone]	< 500 nM
Cn1nccc1C(=O)N1CCc2[nH]cnc2[C@@H]1c1nc2ccccc2s1 [Example 1840, (R)-(4-(benzo[d]thiazol-2-yl)-6,7-dihydro-1H-imidazo[4,5-c]pyridin-5(4H)-yl)(1-methyl-1H-pyrazol-5-yl)methanone]	> 5000 nM

Same assay, conditions: A375 cells expressing human R408W PAH; 24 hrs with compound; 13C-Tyrosine by LC-MS; average where tested multiple times; read-out: AC50

Compound	AC50
O=C(Cc1nncs1)N1CCc2[nH]cnc2C1c1nc2c(F)cccc2s1 (stereo not shown)	> 5000 nM
O=C(c1n[nH]c2ccccc12)N1CCc2[nH]cnc2C1c1nc2ccc(F)cc2s1 (stereo not shown) [listing 1 of 2 here]	1000 to 5000 nM
O=C(CCc1cccs1)N1CCc2[nH]cnc2C1c1nc2ccccc2[nH]1 (stereo not shown)	> 5000 nM
O=C(c1cc2ccccn2n1)N1CCc2[nH]cnc2[C@H]1c1nc2ccccc2[nH]1 [(S)-(4-(1H-benzo[d]imidazol-2-yl)-6,7-dihydro-1H-imidazo[4,5-c]pyridin-5(4H)-yl)(pyrazolo[1,5-a]pyridin-2-yl)methanone]	> 5000 nM
O=C(c1ccc(F)cc1)N1CCc2[nH]cnc2C1c1nc2ccccc2[nH]1 (stereo not shown)	1000 to 5000 nM
O=C(CCc1ccc(F)cc1)N1CCc2[nH]cnc2C1c1nc2ccccc2[nH]1 (stereo not shown)	1000 to 5000 nM
Cn1nc(-c2ccccn2)cc1C(=O)N1CCc2[nH]cnc2C1c1nc2c(F)cccc2s1 (stereo not shown)	1000 to 5000 nM
O=C(c1oc(C=CC2CC2)nc1C(F)(F)F)N1CCCc2[nH]cnc2C1c1nc2ccccc2s1 (stereo not shown)	> 5000 nM
O=C(c1cnco1)N1CC2(CC2)c2[nH]cnc2C1c1nc2c(F)cccc2s1 (stereo not shown)	> 5000 nM
O=C(c1ccns1)N1CCc2[nH]cnc2[C@H]1c1nc2ccccc2[nH]1 [(S)-(4-(1H-benzo[d]imidazol-2-yl)-1,4,6,7-tetrahydro-5H-imidazo[4,5-c]pyridin-5-yl)(isothiazol-5-yl)methanone]	1000 to 5000 nM
O=C(c1cnn2ccc(Br)cc12)N1CCc2[nH]cnc2C1c1nc2ccc(Cl)cc2[nH]1 (stereo not shown)	1000 to 5000 nM
Cc1ncoc1CC(=O)N1CCc2[nH]cnc2C1c1nc2ccccc2s1 (stereo not shown)	1000 to 5000 nM
O=C(c1cnn(CC(F)(F)F)c1)N1CCc2[nH]cnc2C1c1nc2ccccc2s1 (stereo not shown)	> 5000 nM
Cc1ncoc1C(=O)N1CC2(CC2)c2[nH]cnc2C1c1nc2c(F)cccc2s1 (stereo not shown)	> 5000 nM
O=C(c1n[nH]c2ccccc12)N1CCc2[nH]cnc2C1c1nc2ccc(F)cc2s1 (stereo not shown) [listing 2 of 2 here]	> 5000 nM
Cn1cc(-c2cnc(CC(=O)N3CCc4[nH]cnc4C3c3nc4ccccc4s3)s2)cn1 (stereo not shown)	> 5000 nM
